For test [1], the target named is EGFR kinase (Homo sapiens (Human), UniProt P00533). Description: EGFR kinase activity, luminescent ATP/ADP detection assay. Format: biochemical. The conditions noted are these: purified EGFR kinase, 10 min incubation, luminescence ADP detection. The method, then: Example RR: EGFR as a Drug Target Assay Conditions
The IC50s of the compounds on EGFR activity were determined using the Luminescent ATP/ADP detection assay system. Briefly, the assay method measures ADP formed from EGFR kinase activity using luminescence derived from ATP-Luciferase detection system. Purified EGFR kinase was incubated with different concentrations of test compound in the kinase reaction buffer for 10 min. The reaction was stopped by depleting the unused ATP in the kinase reaction buffer using the depletion buffer for 40 min. The levels of ADP generated during the kinase reaction was detected by measuring the luminescence using the Luciferase system.

The subject of test [2] is TNF-α (LPS-stimulated PBMCs). In words: TNF-α expression in LPS-stimulated PBMCs in the presence of MIF inhibitors (ELISA). Format: cell-based. The settings on record: Homo sapiens, PBMC, LPS 10 ng/ml and LPS+MIF, ELISA of supernatant. The procedure:
(§1) Example QQ: Macrophage Migration Inhibitory Factor (MIF) as a Drug Target Assay Conditions
(§2) a) PBMC Isolation: • Heparinized blood (10 ml) was diluted with equal volume of phosphate buffer saline (PBS). To the Ficoll solution (5 ml) add 5 ml of blood:PBS mixture and centrifuge at 1600 rpm for 30 minutes. Take the buffy coat and wash with PBS at 1200 rpm for 5 minutes (twice). After two wash with PBS, the PBMCs were washed with RPMI medium. The PBMC were counted and plated in 96 well plates (1×10^6 cells/well).
(§3) b) Expression of TNF-α and […] in PBMCs in the Presence of MIF Inhibitors: • After overnight incubation, the cells were treated with different concentration of MIF inhibitors. After 6 hr, cells were treated with LPS (10 ng/ml) and LPS+MIF combination (10 ng/ml) and further incubated for overnight. PBMCs treated with 10 ng/ml of LPS and MIF in the presence of different concentrations of test compounds. After the incubation period, the supernatant were collected and human TNF-α and IL-1β were determined using the ELISA kits (R&D Systems).
In general terms: ELISA stands for enzyme-linked immunosorbent assay.

Test [3] concerns IL-1β (LPS-stimulated PBMCs). In words: IL-1β expression in LPS-stimulated PBMCs in the presence of MIF inhibitors (ELISA). Format: cell-based. The settings on record: Homo sapiens, PBMC, LPS 10 ng/ml and LPS+MIF, ELISA of supernatant. The method, then:
as §1, §2, §3

EGFR kinase, sequence (P00533 25-1210): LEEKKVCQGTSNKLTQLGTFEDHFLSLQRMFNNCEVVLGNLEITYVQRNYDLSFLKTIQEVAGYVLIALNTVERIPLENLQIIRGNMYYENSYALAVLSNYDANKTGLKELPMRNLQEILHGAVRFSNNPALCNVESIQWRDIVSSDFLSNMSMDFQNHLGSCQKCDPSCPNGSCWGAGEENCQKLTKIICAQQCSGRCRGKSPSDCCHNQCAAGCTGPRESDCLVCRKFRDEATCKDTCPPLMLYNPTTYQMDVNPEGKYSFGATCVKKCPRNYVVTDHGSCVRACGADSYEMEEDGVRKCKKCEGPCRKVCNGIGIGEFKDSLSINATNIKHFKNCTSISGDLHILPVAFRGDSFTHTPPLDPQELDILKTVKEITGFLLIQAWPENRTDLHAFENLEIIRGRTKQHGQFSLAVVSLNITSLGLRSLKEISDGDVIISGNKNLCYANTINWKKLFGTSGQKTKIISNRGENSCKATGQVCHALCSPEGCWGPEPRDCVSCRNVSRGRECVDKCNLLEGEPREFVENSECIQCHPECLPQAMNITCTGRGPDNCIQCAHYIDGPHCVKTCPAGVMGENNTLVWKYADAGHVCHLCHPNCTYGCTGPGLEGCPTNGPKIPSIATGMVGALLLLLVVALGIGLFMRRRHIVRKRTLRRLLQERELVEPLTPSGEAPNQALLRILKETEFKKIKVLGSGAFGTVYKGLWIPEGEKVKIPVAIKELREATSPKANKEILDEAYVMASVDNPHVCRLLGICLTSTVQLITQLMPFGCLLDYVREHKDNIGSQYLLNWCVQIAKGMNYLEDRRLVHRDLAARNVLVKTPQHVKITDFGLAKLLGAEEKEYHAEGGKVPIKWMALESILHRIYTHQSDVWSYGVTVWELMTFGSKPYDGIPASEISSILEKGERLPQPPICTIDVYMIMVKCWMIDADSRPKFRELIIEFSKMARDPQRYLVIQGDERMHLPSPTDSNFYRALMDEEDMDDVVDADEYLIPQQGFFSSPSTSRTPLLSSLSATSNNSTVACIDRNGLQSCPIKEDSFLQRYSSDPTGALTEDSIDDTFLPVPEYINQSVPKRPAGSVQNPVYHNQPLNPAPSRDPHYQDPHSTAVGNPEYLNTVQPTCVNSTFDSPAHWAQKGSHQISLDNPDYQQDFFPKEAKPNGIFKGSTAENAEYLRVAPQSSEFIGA

For `CC(=O)O[C@H]1CO[C@H]2[C@@H]1OC[C@@H]2Oc1ccnc(NC2CCN(S(=O)(=O)c3ccc(C)cc3)CC2)n1` [Example GG, [(3S,3aR,6S,6aR)-3-[2-[(1-tolylsulfonyl-4-piperidyl)amino]pyrimidin-4-yl]oxy-2,3,3a,5,6,6a-hexahydrofuro[3,2-b]furan-6-yl] acetate], in test [1], the “EGFR IC50” value is reported as “Inactive”.

For the compound `N#Cc1c(O[C@H]2CO[C@H]3[C@@H]2OC[C@@H]3OC(=O)c2ccccc2)c2ccccc2n(Cc2ccc(F)cc2)c1=O` [Example P, [(3S,3aR,6S,6aR)-3-[[3-cyano-1-[(4-fluorophenyl)methyl]-2-oxo-4-quinolyl]oxy]-2,3,3a,5,6,6a-hexahydrofuro[3,2-b]furan-6-yl] benzoate], the IC50 in test [2] and in test [3] was greater than 10000 nM each time. `CCOC(=O)c1c(Nc2ccc(O[C@H]3CO[C@H]4[C@@H]3OC[C@@H]4O)c(Cl)c2)c2ccccc2n(Cc2ccccc2)c1=O` [Example S, ethyl 4-[4-[[(3S,3aR,6S,6aR)-3-hydroxy-2,3,3a,5,6,6a-hexahydrofuro[3,2-b]furan-6-yl]oxy]-3-chloro-anilino]-1-benzyl-2-oxo-1,2-dihydroquinoline-3-carboxylate]: the IC50 in test [2] and in test [3] was greater than 500 nM in each case. On to `CC(=O)O[C@H]1CO[C@H]2[C@@H]1OC[C@@H]2Oc1ccnc(NC2CCN(C(=O)C(C)(C)C)CC2)n1` [Example HH, [(3S,3aR,6S,6aR)-3-[2-[[1-(2,2-dimethylpropanoyl)-4-piperidyl]amino]pyrimidin-4-yl]oxy-2,3,3a,5,6,6a-hexahydrofuro[3,2-b]furan-6-yl] acetate], for which, in test [1], the “EGFR IC50” value is reported as “Inactive”. With `CCOC(=O)c1c(O[C@H]2CO[C@H]3[C@@H]2OC[C@@H]3O)c2ccccc2n(CC)c1=O` [Example A, ethyl 4-[[(3S,3aR,6S,6aR)-3-hydroxy-2,3,3a,5,6,6a-hexahydrofuro[3,2-b]furan-6-yl]oxy]-1-ethyl-2-oxo-1,2-dihydroquinoline-3-carboxylate], the IC50 in test [2] and in test [3] was greater than 1000 nM throughout. As to `N#Cc1c(O[C@H]2CO[C@H]3[C@@H]2OC[C@@H]3OC(=O)CCl)c2ccccc2n(Cc2ccc(F)cc2)c1=O` [Example Q, [(3S,3aR,6S,6aR)-3-[[3-cyano-1-[(4-fluorophenyl)methyl]-2-oxo-4-quinolyl]oxy]-2,3,3a,5,6,6a-hexahydrofuro[3,2-b]furan-6-yl] 2-chloroacetate], the IC50 in test [2] and in test [3] was greater than 100 nM in each case. As for `CC(=O)O[C@H]1CO[C@H]2[C@@H]1OC[C@@H]2Oc1c(C#N)c(=O)n(Cc2ccc(F)cc2)c2ccccc12` [Example O, [(3S,3aR,6S,6aR)-3-[[3-cyano-1-[(4-fluorophenyl)methyl]-2-oxo-4-quinolyl]oxy]-2,3,3a,5,6,6a-hexahydrofuro[3,2-b]furan-6-yl] acetate], the IC50 in test [2] was greater than 100 nM; in test [3], greater than 10000 nM. On to `CCOC(=O)c1c(O[C@H]2CO[C@H]3[C@@H]2OC[C@@H]3O)c2ccccc2n(Cc2ccccc2)c1=O` [Example E, ethyl 4-[[(3S,3aR,6S,6aR)-3-hydroxy-2,3,3a,5,6,6a-hexahydrofuro[3,2-b]furan-6-yl]oxy]-1-benzyl-2-oxo-1,2-dihydroquinoline-3-carboxylate], for which the IC50 in test [2] and in test [3] was greater than 500 nM throughout. Turning to `N#Cc1c(O[C@H]2CO[C@H]3[C@@H]2OC[C@@H]3O)c2ccccc2n(Cc2ccccc2)c1=O` [Example K, 4-[[(3S,3aR,6S,6aR)-3-hydroxy-2,3,3a,5,6,6a-hexahydrofuro[3,2-b]furan-6-yl]oxy]-1-benzyl-2-oxo-1,2-dihydroquinoline-3-carbonitrile], the IC50 in test [2] and in test [3] was greater than 100 nM in each case. Take `CCOC(=O)c1c(O[C@H]2CO[C@H]3[C@@H]2OC[C@@H]3OC(=O)CCl)c2ccccc2n(Cc2ccccc2)c1=O` [Example G, ethyl 4-[[(3S,3aR,6S,6aR)-6-(2-chloroacetyl)oxy-2,3,3a,5,6,6a-hexahydrofuro[3,2-b]furan-3-yl]oxy]-1-benzyl-2-oxo-1,2-dihydroquinoline-3-carboxylate]: the IC50 in test [2] and in test [3] was greater than 100 nM throughout. Turning to `CCOC(=O)c1c(O[C@H]2CO[C@H]3[C@@H]2OC[C@@H]3OC(=O)CCl)c2ccccc2n(Cc2ccc(F)cc2)c1=O` [Example J, ethyl 4-[[(3S,3aR,6S,6aR)-6-(2-chloroacetyl)oxy-2,3,3a,5,6,6a-hexahydrofuro[3,2-b]furan-3-yl]oxy]-1-[(4-fluorophenyl)methyl]-2-oxo-1,2-dihydroquinoline-3-carboxylate], the IC50 in test [2] and in test [3] was greater than 100 nM each time. Regarding `CCOC(=O)c1c(O[C@H]2CO[C@H]3[C@@H]2OC[C@@H]3OC(C)=O)c2ccccc2n(Cc2ccccc2)c1=O` [Example F, ethyl 4-[[(3S,3aR,6S,6aR)-6-acetoxy-2,3,3a,5,6,6a-hexahydrofuro[3,2-b]furan-3-yl]oxy]-1-benzyl-2-oxo-1,2-dihydroquinoline-3-carboxylate], the IC50 in test [2] and in test [3] was greater than 10000 nM in each case.

In the case of `CCOC(=O)c1c(O[C@H]2CO[C@@H]3C=CO[C@H]23)c2ccccc2n(CC)c1=O` [Example D, ethyl 4-[[(3S,3aS,6aR)-2,3,3a,6a-tetrahydrofuro[3,2-b]furan-3-yl]oxy]-1-ethyl-2-oxo-1,2-dihydroquinoline-3-carboxylate], the IC50 in test [2] and in test [3] was greater than 10000 nM throughout. With `CCOC(=O)c1c(O[C@H]2CO[C@H]3[C@@H]2OC[C@@H]3OC(=O)CCl)c2ccccc2n(CC)c1=O` [Example C, ethyl 4-[[(3S,3aR,6S,6aR)-6-(2-chloroacetyl)oxy-2,3,3a,5,6,6a-hexahydrofuro[3,2-b]furan-3-yl]oxy]-1-ethyl-2-oxo-1,2-dihydroquinoline-3-carboxylate], the IC50 in test [2] and in test [3] was greater than 500 nM throughout. With `CCOC(=O)c1c(O[C@H]2CO[C@H]3[C@@H]2OC[C@@H]3O)c2ccccc2n(Cc2ccc(F)cc2)c1=O` [Example I, ethyl 4-[[(3S,3aR,6S,6aR)-3-hydroxy-2,3,3a,5,6,6a-hexahydrofuro[3,2-b]furan-6-yl]oxy]-1-[(4-fluorophenyl)methyl]-2-oxo-1,2-dihydroquinoline-3-carboxylate], the IC50 in test [2] and in test [3] was greater than 500 nM each time. Consider `CC(=O)O[C@H]1CO[C@H]2[C@@H]1OC[C@@H]2Oc1c(C#N)c(=O)n(Cc2ccccc2)c2ccccc12` [Example L, [(3S,3aR,6S,6aR)-3-[(1-benzyl-3-cyano-2-oxo-4-quinolyl)oxy]-2,3,3a,5,6,6a-hexahydrofuro[3,2-b]furan-6-yl] acetate], for which the IC50 in test [2] and in test [3] was greater than 1000 nM each time.

For the compound `N#Cc1c(O[C@H]2CO[C@H]3[C@@H]2OC[C@@H]3OC(=O)CCl)c2ccccc2n(Cc2ccccc2)c1=O` [Example M, [(3S,3aR,6S,6aR)-3-[(1-benzyl-3-cyano-2-oxo-4-quinolyl)oxy]-2,3,3a,5,6,6a-hexahydrofuro[3,2-b]furan-6-yl] 2-chloroacetate], the concentration for half-maximal inhibition (IC50) in test [2] and in test [3] was greater than 500 nM throughout. Take `CCOC(=O)c1c(O[C@H]2CO[C@@H]3C=CO[C@H]23)c2ccccc2n(Cc2ccccc2)c1=O` [Example H, ethyl 4-[[(3S,3aS,6aR)-2,3,3a,6a-tetrahydrofuro[3,2-b]furan-3-yl]oxy]-1-benzyl-2-oxo-1,2-dihydroquinoline-3-carboxylate]: the IC50 in test [2] and in test [3] was greater than 10000 nM each time. For `CCOC(=O)c1c(O[C@H]2CO[C@H]3[C@@H]2OC[C@@H]3OC(C)=O)c2ccccc2n(CC)c1=O` [Example B, ethyl 4-[[(3S,3aR,6S,6aR)-6-acetoxy-2,3,3a,5,6,6a-hexahydrofuro[3,2-b]furan-3-yl]oxy]-1-ethyl-2-oxo-1,2-dihydroquinoline-3-carboxylate], the IC50 in test [2] and in test [3] was greater than 10000 nM each time.

`N#Cc1c(Nc2ccc(O[C@H]3CO[C@H]4[C@@H]3OC[C@@H]4O)c(Cl)c2)c2ccccc2n(Cc2ccccc2)c1=O` [Example R, 4-[4-[[(3S,3aR,6S,6aR)-3-hydroxy-2,3,3a,5,6,6a-hexahydrofuro[3,2-b]furan-6-yl]oxy]-3-chloro-anilino]-1-benzyl-2-oxo-1,2-dihydroquinoline-3-carbonitrile]: the IC50 in test [2] and in test [3] was greater than 100 nM each time. Consider `N#Cc1c(O[C@H]2CO[C@H]3[C@@H]2OC[C@@H]3O)c2ccccc2n(Cc2ccc(F)cc2)c1=O` [Example N, 4-[[(3S,3aR,6S,6aR)-3-hydroxy-2,3,3a,5,6,6a-hexahydrofuro[3,2-b]furan-6-yl]oxy]-1-[(4-fluorophenyl)methyl]-2-oxo-1,2-dihydroquinoline-3-carbonitrile], for which the IC50 in test [2] was greater than 100 nM; in test [3], greater than 10000 nM.

In general, IC50 refers to the concentration at which inhibition is half-maximal.

Values taken from US10815244B2, “Isoidide derivatives and methods of making and using same” (Rutgers, the State University of New Jersey, priority 2015, dated 2020).
